# Assay results as given in patent US6723753B2, “Substituted n-benzyl-n-phenyl aminoalcohol compounds useful for inhibiting cholesteryl ester transfer protein activity” (Pharmacia Corporation, priority 2002, dated 2004).
# Biological target: T1, CETP (Homo sapiens, UniProt P11597)
# T1 sequence (P11597 18-493): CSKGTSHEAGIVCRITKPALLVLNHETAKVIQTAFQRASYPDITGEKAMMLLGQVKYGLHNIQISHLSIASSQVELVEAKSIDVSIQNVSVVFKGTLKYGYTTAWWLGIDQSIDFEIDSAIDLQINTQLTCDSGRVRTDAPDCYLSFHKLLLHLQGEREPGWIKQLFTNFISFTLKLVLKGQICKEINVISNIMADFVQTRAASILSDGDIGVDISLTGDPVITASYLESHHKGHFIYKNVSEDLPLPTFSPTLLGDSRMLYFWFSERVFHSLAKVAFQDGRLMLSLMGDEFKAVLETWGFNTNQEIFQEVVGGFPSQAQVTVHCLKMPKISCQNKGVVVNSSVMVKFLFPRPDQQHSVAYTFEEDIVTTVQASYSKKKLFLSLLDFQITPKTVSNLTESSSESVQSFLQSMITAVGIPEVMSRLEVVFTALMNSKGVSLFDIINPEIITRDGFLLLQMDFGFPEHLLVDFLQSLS
# Assay: Assay of CETP Inhibition using Purified Components (Reconstituted Buffer Assay)
# Format: biochemical
# Set-up: made in house; host or cells: CHO cells (serum-free conditioned medium)
# Conditions: Inhibition of CETP activity in reconstituted buffer assay; transfer of [3H]CE from HDL to LDL; read-out: IC50
# Outline: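 Purified human recombinant CETP from transfected CHO cells was incubated with [^3H]CE-labeled HDL donor and LDL acceptor in Tris pH 7.4/NaCl/EDTA/1% BSA buffer for 2 h at 37 °C. LDL was then precipitated with dextran sulfate/MgCl2, filtered, and counted by liquid scintillation to give IC50 for CE transfer.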
row,Structure (SMILES),IC50 [µM]
1,"OC(CN(Cc1cccc(OC(F)(F)C(F)F)c1)c1cccc(-c2nn[nH]n2)c1)C(F)(F)F (stereo not drawn) [Example 577, 3-[[[3-(1,1,2,2-tetrafluoroethoxy)phenyl]methyl][3-(1H-tetrazol-5-yl)phenyl]amino]-1,1,1-trifluoro-2-propanol]",> 50
2,OC(CN(Cc1cccc(OC(F)(F)C(F)F)c1)c1cccc(Oc2ccc(Cl)cc2Cl)c1)C(F)(F)F (stereo not drawn) [Example 231],0.34
3,OC(CN(Cc1cccc(OC(F)(F)C(F)F)c1)c1cccc(Oc2ccc(Cl)c(Cl)c2)c1)C(F)(F)F (stereo not drawn) [Example 256],0.079
4,OC(CN(CCCc1ccccc1)c1cccc(OC(F)(F)F)c1)C(F)(F)F (stereo not drawn) [Example 337],> 100
5,"O=C(Nc1ccc(F)cc1)Nc1cccc(N(Cc2cccc(OC(F)(F)C(F)F)c2)CC(O)C(F)(F)F)c1 (stereo not drawn) [Example 545, N-(4-fluorophenyl)-N′-[3-[[[3-(1,1,2,2-tetrafluoroethoxy)phenyl]methyl]-(3,3,3-trifluoro-2-hydroxypropyl)amino]phenyl]urea]",> 50
6,OC(CN(Cc1ccncc1)c1cccc(OC(F)(F)F)c1)C(F)(F)F (stereo not drawn) [Example 349],> 100
7,Cc1ccc(CN(CC(O)C(F)(F)F)c2ccc(F)c(C(F)(F)F)c2)cc1 (stereo not drawn) [Example 53],15
8,OC(CN(Cc1cccc(F)c1)Cc1ccccc1C(F)(F)F)C(F)(F)F (stereo not drawn) [compound 188],> 100
9,CCC(=O)COc1cccc(N(Cc2cccc(OC(F)(F)C(F)F)c2)CC(O)C(F)(F)F)c1 (stereo not drawn) [Example 493],1.8
10,OC(CN(Cc1cccc(OC(F)(F)C(F)F)c1)c1cccc(Oc2ccc(C3CCCC3)cc2)c1)C(F)(F)F (stereo not drawn) [Example 257],2.2
11,O=C(NCc1ccccc1)c1cccc(N(Cc2cccc(OC(F)(F)C(F)F)c2)CC(O)C(F)(F)F)c1 (stereo not drawn) [Example 465],> 50
12,OC(CN(Cc1cccc(Oc2ccccc2)c1)c1cccc(OC(F)(F)F)c1)C(F)(F)F (stereo not drawn) [Example 82],8
13,OC(CN(Cc1cccc(OC(F)(F)C(F)F)c1)c1cccc(Oc2cc3ccccc3cn2)c1)C(F)(F)F (stereo not drawn) [Example 284],> 50
14,CCCCCCCCc1ccc(N(Cc2cccc(OC(F)(F)F)c2)CC(O)C(F)(F)F)cc1 (stereo not drawn) [Example 88],75
15,CN(C(=O)c1cccc(N(Cc2cccc(OC(F)(F)C(F)F)c2)CC(O)C(F)(F)F)c1)c1ccccc1 (stereo not drawn) [Example 468],35
16,CON(C)C(=O)c1cccc(CN(CC(O)C(F)(F)F)c2cccc(Oc3ccccc3)c2)c1 (stereo not drawn) [620A],24.6
17,OC(CN(Cc1cccc(OC(F)(F)C(F)F)c1)c1cccc(NCc2cccc(OC(F)(F)C(F)F)c2)c1)C(F)(F)F (stereo not drawn) [Example 544],2.3
18,OC(CN(Cc1cccc(OCc2ccccc2)c1)c1cccc(OC(F)(F)F)c1)C(F)(F)F (stereo not drawn) [Example 83],20
19,OC(CN(Cc1cccc(OC(F)(F)C(F)F)c1)c1cccc(Oc2cc(F)cc(F)c2F)c1)C(F)(F)F (stereo not drawn) [Example 225],0.37
20,"O=C(Nc1cccc(N(Cc2cccc(OC(F)(F)C(F)F)c2)CC(O)C(F)(F)F)c1)c1ccc(F)cc1 (stereo not drawn) [Example 535, 4-fluoro-N-[3-[[[3-(1,1,2,2-tetrafluoroethoxy)phenyl]methyl](3,3,3-trifluoro-2-hydroxypropyl)amino]phenyl]benzamide]",> 50
21,CCCCN(c1ccc(C(=O)OCC)cc1)c1cccc(N(Cc2cccc(OC(F)(F)C(F)F)c2)CC(O)C(F)(F)F)c1 (stereo not drawn) [Example 313],20

row,Structure (SMILES),IC50 [µM]
1,Cc1cccc(CN(Cc2ccc(F)cc2)CC(O)C(F)(F)F)c1 (stereo not drawn) [compound 182],> 100
2,OC(CN(Cc1cccc(OC(F)(F)C(F)F)c1)c1cccc(OCc2c(F)cccc2F)c1)C(F)(F)F (stereo not drawn) [Example 394],3.1
3,OC(CN(Cc1cccc(OC(F)(F)C(F)F)c1)c1cccc(OCc2cccc(Cl)c2)c1)C(F)(F)F (stereo not drawn) [Example 420],0.27
4,OC(CN(Cc1ccc(F)cc1)Cc1ccc(C(F)(F)F)cc1)C(F)(F)F (stereo not drawn) [compound 170],> 100
5,COc1cc(OC)cc(C(=O)N(CC(O)C(F)(F)F)c2cccc(OC(F)(F)F)c2)c1 (stereo not drawn) [Example 353],70
6,N#Cc1ccc(-c2ccc(N(Cc3cccc(OC(F)(F)F)c3)CC(O)C(F)(F)F)cc2)cc1 (stereo not drawn) [Example 167],2
7,OC(CN(Cc1cccc(Oc2ccccc2)c1)c1cccc(C(F)(F)F)c1)C(F)(F)F (stereo not drawn) [Example 109],25
8,CCCCN(C)C(=O)c1cccc(CN(CC(O)C(F)(F)F)c2cccc(Oc3ccccc3)c2)c1 (stereo not drawn) [compound 615],> 100
9,OC(CN(Cc1cc(C(F)(F)F)cc(C(F)(F)F)c1)c1cccc(Oc2ccccc2)c1)C(F)(F)F (stereo not drawn) [Example 145],15
10,O=C1c2ccccc2C(=O)c2cc(CN(CC(O)C(F)(F)F)c3cccc(OC(F)(F)F)c3)ccc21 (stereo not drawn) [Example 342],70
11,O=[N+]([O-])c1cccc(COc2cccc(N(Cc3cccc(OC(F)(F)C(F)F)c3)CC(O)C(F)(F)F)c2)c1 (stereo not drawn) [Example 382],2.3
12,"CCOC(=O)c1cccc(N(Cc2cccc(OC(F)(F)F)c2)CC(O)C(F)(F)F)c1 (stereo not drawn) [Example 585, Ethyl 3-[(3,3,3-trifluoro-2-hydroxypropyl)[[(3-trifluoromethoxy)phenyl]methyl]amino]benzoate]",5.8
13,Nc1cccc(-c2cccc(N(Cc3cccc(OC(F)(F)C(F)F)c3)CC(O)C(F)(F)F)c2)c1 (stereo not drawn) [Example 572],10
14,OC(CN(Cc1cccc(OC(F)(F)F)c1)c1ccc2c(c1)OCO2)C(F)(F)F (stereo not drawn) [Example 129],9
15,OC(CN(Cc1ccc2c(c1)OCCO2)c1cccc(OC(F)(F)F)c1)C(F)(F)F (stereo not drawn) [Example 105],35
16,OC(CN(Cc1ccc(OC(F)(F)F)cc1)c1ccc(Oc2ccccc2)cc1)C(F)(F)F (stereo not drawn) [Example 155],> 100
17,OC(CN(Cc1ccc(Oc2ccccc2)cc1)c1cccc(Oc2ccccc2)c1)C(F)(F)F (stereo not drawn) [Example 153],4
18,OC(CN(Cc1cccc(OC(F)(F)C(F)F)c1)c1cccc(Oc2ncccc2C(F)(F)F)c1)C(F)(F)F (stereo not drawn) [Example 444],1.5
19,Cc1cccc(N(Cc2ccc(OC(F)(F)F)cc2)CC(O)C(F)(F)F)c1 (stereo not drawn) [Example 61],23
20,OC(CN(Cc1ccccc1)c1cccc(Cl)c1)C(F)(F)F (stereo not drawn) [Example 16],60
21,OC(CN(Cc1cccc(OC(F)(F)C(F)F)c1)c1cccc(-c2ccccc2C(F)(F)F)c1)C(F)(F)F (stereo not drawn) [Example 570],1.8

row,Structure (SMILES),IC50 [µM]
1,COc1cc(OC)c(OC)cc1CN(CC(O)C(F)(F)F)c1cccc(OC(F)(F)F)c1 (stereo not drawn) [Example 354],> 100
2,COc1cccc(N(Cc2ccc(C)cc2)CC(O)C(F)(F)F)c1 (stereo not drawn) [Example 4],60
3,Cc1cccc(CN(Cc2cccc(F)c2)CC(O)C(F)(F)F)c1 (stereo not drawn) [compound 180],> 100
4,OC(CN(Cc1ccc(OCc2ccccc2)cc1)c1cccc(OC(F)(F)F)c1)C(F)(F)F (stereo not drawn) [Example 683],20
5,CC(C)NC(=O)Nc1cccc(N(Cc2cccc(OC(F)(F)C(F)F)c2)CC(O)C(F)(F)F)c1 (stereo not drawn) [Example 549],> 50
6,OC(CN(Cc1cccc(OC(F)(F)F)c1)c1ccccc1)C(F)(F)F (stereo not drawn) [Example 73],3
7,CC(C)(C)c1ccc(Oc2cccc(N(Cc3cccc(OC(F)(F)C(F)F)c3)CC(O)C(F)(F)F)c2)cc1 (stereo not drawn) [Example 437],2.2
8,COc1ccc(N(Cc2cccc(OC(F)(F)F)c2)CC(O)C(F)(F)F)cc1OC1CCCC1 (stereo not drawn) [Example 159],3.5
9,O=C(Nc1ccc(-c2ccccc2)cc1)N(CC(O)C(F)(F)F)c1cccc(OC(F)(F)F)c1 (stereo not drawn) [Example 369],> 100
10,CC(Oc1cccc(N(Cc2cccc(OC(F)(F)C(F)F)c2)CC(O)C(F)(F)F)c1)C(=O)Nc1ccccc1 (stereo not drawn) [Example 502],5.7
11,O=[N+]([O-])c1cccc(N(Cc2cccc(OC(F)(F)C(F)F)c2)CC(O)C(F)(F)F)c1 (stereo not drawn) [528B],11
12,COc1ccc(Oc2cccc(CN(CC(O)C(F)(F)F)c3cccc(Oc4ccccc4)c3)c2)cc1 (stereo not drawn) [Example 161],> 100
13,O=[N+]([O-])c1cccc(S(=O)(=O)Nc2cccc(N(Cc3cccc(OC(F)(F)C(F)F)c3)CC(O)C(F)(F)F)c2)c1 (stereo not drawn) [Example 532],> 50
14,OC(CN(Cc1ccc(Oc2ccc(Cl)c(Cl)c2)cc1)c1cccc(Oc2ccccc2)c1)C(F)(F)F (stereo not drawn) [Example 685],60
15,CC(c1cccc(OC(F)(F)F)c1)N(CC(O)C(F)(F)F)c1cccc(Oc2ccccc2)c1 (stereo not drawn) [Example 206],> 100
16,OC(CN(Cc1ccc(OCc2ccccc2)c(OCc2ccccc2)c1)c1cccc(OC(F)(F)F)c1)C(F)(F)F (stereo not drawn) [Example 100],90
17,Cc1cccc(CN(CC(O)C(F)(F)F)c2cc(F)cc(F)c2)c1 (stereo not drawn) [Example 81],> 100
18,OC(CN(Cc1cccc(OC(F)(F)C(F)F)c1)c1cccc(OCc2ccc(F)c(F)c2)c1)C(F)(F)F (stereo not drawn) [Example 398],1.1
19,O=[N+]([O-])c1ccc(CN(CC(O)C(F)(F)F)c2cccc(Oc3ccccc3)c2)cc1 (stereo not drawn) [Example 148],15
20,OC(CN(Cc1cccc(OC(F)(F)C(F)F)c1)c1cccc(OCc2ccc(OCc3ccccc3)cc2)c1)C(F)(F)F (stereo not drawn) [Example 413],17
21,CC(C)S(=O)(=O)Nc1cccc(N(Cc2cccc(OC(F)(F)C(F)F)c2)CC(O)C(F)(F)F)c1 (stereo not drawn) [Example 534],> 50
